How the values were obtained:
Assay type in all cases: ADME
[1] = The drug is tested on Capnocytophaga ochracea strain: DSM7271 for biotransformation under anaerobic condition. The drug concentrations were measured over 6 timepoints collected between 0 and 12 hours of incubation by liquid-chromatography-coupled mass spectrometry (LC–MS); design: dose 5 uM, timepoint 0, 1.5, 3, 6, 9, 12 hours; settings: 5 µM
[2] = The drug is tested on Gemella haemolysans strain: DSM107751 for biotransformation under anaerobic condition. The drug concentrations were measured over 6 timepoints collected between 0 and 12 hours of incubation by liquid-chromatography-coupled mass spectrometry (LC–MS); design: dose 5 uM, timepoint 0, 1.5, 3, 6, 9, 12 hours; settings: 5 µM
[3] = The drug is tested on Lactobacillus reuteri strain: DSM20016 for biotransformation under anaerobic condition. The drug concentrations were measured over 6 timepoints collected between 0 and 12 hours of incubation by liquid-chromatography-coupled mass spectrometry (LC–MS); design: dose 5 uM, timepoint 0, 1.5, 3, 6, 9, 12 hours; settings: limosilactobacillus reuteri, 5 µM
[4] = The drug is tested on Roseburia intestinalis strain: DSM14610 for biotransformation under anaerobic condition. The drug concentrations were measured over 6 timepoints collected between 0 and 12 hours of incubation by liquid-chromatography-coupled mass spectrometry (LC–MS); design: dose 5 uM, timepoint 0, 1.5, 3, 6, 9, 12 hours; settings: 5 µM
[5] = The drug is tested on Streptococcus salivarius strain: DSM20560 for biotransformation under anaerobic condition. The drug concentrations were measured over 6 timepoints collected between 0 and 12 hours of incubation by liquid-chromatography-coupled mass spectrometry (LC–MS); design: dose 5 uM, timepoint 0, 1.5, 3, 6, 9, 12 hours; settings: 5 µM
[6] = The drug is tested on Escherichia coli strain: DSM27469 for biotransformation under anaerobic condition. The drug concentrations were measured over 6 timepoints collected between 0 and 12 hours of incubation by liquid-chromatography-coupled mass spectrometry (LC–MS); design: dose 5 uM, timepoint 0, 1.5, 3, 6, 9, 12 hours; settings: 5 µM
[7] = The drug is tested on Bifidobacterium longum strain: DSM20088 for biotransformation under microaerobic condition. The drug concentrations were measured over 6 timepoints collected between 0 and 12 hours of incubation by liquid-chromatography-coupled mass spectrometry (LC–MS); design: dose 5 uM, timepoint 0, 1.5, 3, 6, 9, 12 hours; settings: 5 µM
[8] = The drug is tested on Lactobacillus paracasei strain: ATCC27092 for biotransformation under microaerobic condition. The drug concentrations were measured over 6 timepoints collected between 0 and 12 hours of incubation by liquid-chromatography-coupled mass spectrometry (LC–MS); design: dose 5 uM, timepoint 0, 1.5, 3, 6, 9, 12 hours; settings: lacticaseibacillus paracasei, 5 µM
[9] = The drug is tested on Lactobacillus reuteri strain: DSM20016 for biotransformation under microaerobic condition. The drug concentrations were measured over 6 timepoints collected between 0 and 12 hours of incubation by liquid-chromatography-coupled mass spectrometry (LC–MS); design: dose 5 uM, timepoint 0, 1.5, 3, 6, 9, 12 hours; settings: limosilactobacillus reuteri, 5 µM
[10] = The drug is tested on Streptococcus anginosus strain: DSM20563 for biotransformation under microaerobic condition. The drug concentrations were measured over 6 timepoints collected between 0 and 12 hours of incubation by liquid-chromatography-coupled mass spectrometry (LC–MS); design: dose 5 uM, timepoint 0, 1.5, 3, 6, 9, 12 hours; settings: 5 µM
[11] = The drug is tested on Streptococcus salivarius strain: DSM20560 for biotransformation under microaerobic condition. The drug concentrations were measured over 6 timepoints collected between 0 and 12 hours of incubation by liquid-chromatography-coupled mass spectrometry (LC–MS); design: dose 5 uM, timepoint 0, 1.5, 3, 6, 9, 12 hours; settings: 5 µM
[12] = The drug is tested on Streptococcus sanguinis strain: DSM20567 for biotransformation under microaerobic condition. The drug concentrations were measured over 6 timepoints collected between 0 and 12 hours of incubation by liquid-chromatography-coupled mass spectrometry (LC–MS); design: dose 5 uM, timepoint 0, 1.5, 3, 6, 9, 12 hours; settings: 5 µM
[13] = The drug is tested on Escherichia coli strain: DSM27469 for biotransformation under microaerobic condition. The drug concentrations were measured over 6 timepoints collected between 0 and 12 hours of incubation by liquid-chromatography-coupled mass spectrometry (LC–MS); design: dose 5 uM, timepoint 0, 1.5, 3, 6, 9, 12 hours; settings: 5 µM
[14] = The drug is tested on the gut metagenome community of A-06 with ENA study accession number: PRJEB31790 for biotransformation under anaerobic condition. The drug concentrations were measured over 7 timepoints collected between 0 and 12 hours of incubation by liquid-chromatography-coupled mass spectrometry (LC–MS); design: dose 5 uM, timepoint 0, 0.75, 1.5, 3, 6, 9, 12 hours; settings: 5 µM
[15] = The drug is tested on the gut metagenome community of T-02 with ENA study accession number: PRJEB31790 for biotransformation under anaerobic condition. The drug concentrations were measured over 7 timepoints collected between 0 and 12 hours of incubation by liquid-chromatography-coupled mass spectrometry (LC–MS); design: dose 5 uM, timepoint 0, 0.75, 1.5, 3, 6, 9, 12 hours; settings: 5 µM
[16] = The drug is tested on the gut metagenome community of T-03 with ENA study accession number: PRJEB31790 for biotransformation under anaerobic condition. The drug concentrations were measured over 7 timepoints collected between 0 and 12 hours of incubation by liquid-chromatography-coupled mass spectrometry (LC–MS); design: dose 5 uM, timepoint 0, 0.75, 1.5, 3, 6, 9, 12 hours; settings: 5 µM
[17] = The drug is tested on the gut metagenome community of T-04 with ENA study accession number: PRJEB31790 for biotransformation under anaerobic condition. The drug concentrations were measured over 7 timepoints collected between 0 and 12 hours of incubation by liquid-chromatography-coupled mass spectrometry (LC–MS); design: dose 5 uM, timepoint 0, 0.75, 1.5, 3, 6, 9, 12 hours; settings: 5 µM
[18] = The drug is tested on the gut metagenome community of A-02 with ENA study accession number: PRJEB31790 for biotransformation under microaerobic condition. The drug concentrations were measured over 7 timepoints collected between 0 and 12 hours of incubation by liquid-chromatography-coupled mass spectrometry (LC–MS); design: dose 5 uM, timepoint 0, 0.75, 1.5, 3, 6, 9, 12 hours; settings: 5 µM
[19] = The drug is tested on the gut metagenome community of A-05 with ENA study accession number: PRJEB31790 for biotransformation under microaerobic condition. The drug concentrations were measured over 7 timepoints collected between 0 and 12 hours of incubation by liquid-chromatography-coupled mass spectrometry (LC–MS); design: dose 5 uM, timepoint 0, 0.75, 1.5, 3, 6, 9, 12 hours; settings: 5 µM
[20] = The drug is tested on the gut metagenome community of P-02 with ENA study accession number: PRJEB31790 for biotransformation under microaerobic condition. The drug concentrations were measured over 7 timepoints collected between 0 and 12 hours of incubation by liquid-chromatography-coupled mass spectrometry (LC–MS); design: dose 5 uM, timepoint 0, 0.75, 1.5, 3, 6, 9, 12 hours; settings: 5 µM
[21] = The drug is tested on the gut metagenome community of P-04 with ENA study accession number: PRJEB31790 for biotransformation under microaerobic condition. The drug concentrations were measured over 7 timepoints collected between 0 and 12 hours of incubation by liquid-chromatography-coupled mass spectrometry (LC–MS); design: dose 5 uM, timepoint 0, 0.75, 1.5, 3, 6, 9, 12 hours; settings: 5 µM
[22] = The drug is tested on the gut metagenome community of T-01 with ENA study accession number: PRJEB31790 for biotransformation under microaerobic condition. The drug concentrations were measured over 7 timepoints collected between 0 and 12 hours of incubation by liquid-chromatography-coupled mass spectrometry (LC–MS); design: dose 5 uM, timepoint 0, 0.75, 1.5, 3, 6, 9, 12 hours; settings: 5 µM
[23] = The drug is tested on the gut metagenome community of T-02 with ENA study accession number: PRJEB31790 for biotransformation under microaerobic condition. The drug concentrations were measured over 7 timepoints collected between 0 and 12 hours of incubation by liquid-chromatography-coupled mass spectrometry (LC–MS); design: dose 5 uM, timepoint 0, 0.75, 1.5, 3, 6, 9, 12 hours; settings: 5 µM
[24] = The drug is tested on the gut metagenome community of T-03 with ENA study accession number: PRJEB31790 for biotransformation under microaerobic condition. The drug concentrations were measured over 7 timepoints collected between 0 and 12 hours of incubation by liquid-chromatography-coupled mass spectrometry (LC–MS); design: dose 5 uM, timepoint 0, 0.75, 1.5, 3, 6, 9, 12 hours; settings: 5 µM
[25] = The drug is tested on the gut metagenome community of T-04 with ENA study accession number: PRJEB31790 for biotransformation under microaerobic condition. The drug concentrations were measured over 7 timepoints collected between 0 and 12 hours of incubation by liquid-chromatography-coupled mass spectrometry (LC–MS); design: dose 5 uM, timepoint 0, 0.75, 1.5, 3, 6, 9, 12 hours; settings: 5 µM

SMILES	Bacterial Biotransformation [1]	Bacterial Biotransformation [2]	Bacterial Biotransformation [3]	Bacterial Biotransformation [4]	Bacterial Biotransformation [5]	Bacterial Biotransformation [6]	Bacterial Biotransformation [7]	Bacterial Biotransformation [8]	Bacterial Biotransformation [9]	Bacterial Biotransformation [10]	Bacterial Biotransformation [11]	Bacterial Biotransformation [12]	Bacterial Biotransformation [13]	Bacterial Biotransformation [14]	Bacterial Biotransformation [15]	Bacterial Biotransformation [16]	Bacterial Biotransformation [17]	Bacterial Biotransformation [18]	Bacterial Biotransformation [19]	Bacterial Biotransformation [20]	other results
COc1c(C)c2c(c(O)c1C/C=C(\C)CCC(=O)OCCN1CCOCC1)C(=O)OC2 [MYCOPHENOLATE MOFETIL]	Compound NOT metabolized	Compound metabolized	Compound NOT metabolized	Compound NOT metabolized	Compound metabolized	Compound NOT metabolized	Compound NOT metabolized	Compound NOT metabolized	Compound NOT metabolized	Compound metabolized	Compound metabolized	Compound metabolized	Compound metabolized	Compound metabolized	Compound metabolized	Compound metabolized	Compound metabolized	Compound metabolized	Compound metabolized	Compound metabolized	Bacterial Biotransformation [21]: Compound metabolized; Bacterial Biotransformation [22]: Compound metabolized; Bacterial Biotransformation [23]: Compound metabolized; Bacterial Biotransformation [24]: Compound metabolized; Bacterial Biotransformation [25]: Compound metabolized
COc1c(C)c2c(c(O)c1C/C=C(\C)CCC(=O)O)C(=O)OC2 [MYCOPHENOLIC ACID]	Compound NOT metabolized	Compound NOT metabolized	Compound NOT metabolized	Compound NOT metabolized	Compound NOT metabolized	Compound NOT metabolized	Compound NOT metabolized	Compound NOT metabolized	Compound NOT metabolized	Compound NOT metabolized	Compound NOT metabolized	Compound NOT metabolized	Compound NOT metabolized	Compound NOT metabolized	Compound NOT metabolized	Compound NOT metabolized	Compound NOT metabolized	Compound NOT metabolized	Compound NOT metabolized	Compound NOT metabolized	Bacterial Biotransformation [21]: Compound NOT metabolized; Bacterial Biotransformation [22]: Compound NOT metabolized; Bacterial Biotransformation [23]: Compound NOT metabolized; Bacterial Biotransformation [24]: Compound NOT metabolized; Bacterial Biotransformation [25]: Compound NOT metabolized
C[C@]12C=CC(=O)C=C1CC[C@@H]1[C@@H]2[C@@H](O)C[C@@]2(C)[C@H]1CC[C@]2(O)C(=O)CO [PREDNISOLONE]	Compound NOT metabolized	Compound NOT metabolized	Compound NOT metabolized	Compound NOT metabolized	Compound NOT metabolized	Compound NOT metabolized	Compound NOT metabolized	Compound NOT metabolized	Compound NOT metabolized	Compound NOT metabolized	Compound NOT metabolized	Compound NOT metabolized	Compound NOT metabolized	Compound metabolized	Compound metabolized	Compound NOT metabolized	Compound NOT metabolized	Compound metabolized	Compound metabolized	Compound metabolized	Bacterial Biotransformation [21]: Compound metabolized; Bacterial Biotransformation [22]: Compound NOT metabolized; Bacterial Biotransformation [23]: Compound metabolized; Bacterial Biotransformation [24]: Compound NOT metabolized; Bacterial Biotransformation [25]: Compound NOT metabolized
